Patent US20250186604A1, “ANTI-PSMA ANTIBODY CONJUGATES” (ADC THERAPEUTICS SA, priority 2023, published 2025)
Starred links: 1 amine or outer side, 2 acyl side, 3 side chain; linkers in the order of their positions; H or OH if unused. Non-standard residues stand in square brackets, D forms with d. Residues, ends and D or L forms follow the SMILES beside them. *: point of attachment. Exatecan = CC[C@@]1(O)C(=O)OCc2c1cc1n(c2=O)Cc2c-1nc1cc(F)c(C)c3c1c2[C@@H](N*)CC3; Propanoyl(3-maleimido) = O=C1C=CC(=O)N1CCC(=O)*; PABC = O=C(OCc1ccc(N[*:1])cc1)[*:2]

What was measured:
topo I/DNA complex = molecular target: T1, topo I/DNA complex (Homo sapiens, UniProt P11387); conditions: versus SN38 (the active metabolite of irinotecan); cited from earlier work
T1 sequence (P11387 1-765): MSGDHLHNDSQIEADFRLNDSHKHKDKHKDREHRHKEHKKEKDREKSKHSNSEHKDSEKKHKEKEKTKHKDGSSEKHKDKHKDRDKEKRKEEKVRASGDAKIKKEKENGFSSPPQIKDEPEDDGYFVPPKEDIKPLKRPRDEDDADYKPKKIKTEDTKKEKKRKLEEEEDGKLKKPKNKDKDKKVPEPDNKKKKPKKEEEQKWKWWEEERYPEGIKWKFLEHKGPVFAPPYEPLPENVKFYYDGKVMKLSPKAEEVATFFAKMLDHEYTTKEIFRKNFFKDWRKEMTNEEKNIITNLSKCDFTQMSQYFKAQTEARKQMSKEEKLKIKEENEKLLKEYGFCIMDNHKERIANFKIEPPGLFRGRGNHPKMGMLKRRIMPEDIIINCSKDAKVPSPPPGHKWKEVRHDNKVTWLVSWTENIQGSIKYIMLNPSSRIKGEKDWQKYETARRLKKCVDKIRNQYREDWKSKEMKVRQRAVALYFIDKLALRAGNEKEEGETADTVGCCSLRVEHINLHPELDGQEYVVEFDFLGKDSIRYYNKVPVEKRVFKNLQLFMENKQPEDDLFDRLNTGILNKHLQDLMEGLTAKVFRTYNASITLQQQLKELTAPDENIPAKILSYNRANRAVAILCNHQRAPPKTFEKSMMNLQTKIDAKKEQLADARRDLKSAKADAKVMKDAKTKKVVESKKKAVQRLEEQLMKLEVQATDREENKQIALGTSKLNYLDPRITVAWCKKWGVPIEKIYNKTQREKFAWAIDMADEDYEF

a variety of cell lines = conditions: versus SN38; cited from earlier work
[1] = RP-HPLC retention time correlated with hydrophobicity; format: physicochemical; conditions: high Rt = hydrophobic, low Rt = hydrophilic
Description: • Column: Phenomenex Gemini NX 5 m, C18, 110Å, 150×4.6 mm • Instrument: Shimadzu LC-2030 • Mobile phase: A) water (0.05% TFA), B) acetonitrile (0.05% TFA) • Gradient: 20-70% B over 15 min, flow 1.0 mL/min
A correlation study was also carried out using Reverse-Phase HPLC (RP-HPLC). The two constructs were injected in RP-HPLC and retention times (Rt) correlated with hydrophobicity—i.e., high Rt was associated to hydrophobic constructs whereas low Rt to hydrophilic ones.

[2] = Aggregation during conjugation to a test antibody (% monomer by SEC); format: physicochemical; conditions: drug linker conjugated to a test antibody
Description: 2 mg of a test monoclonal antibody at 8.87 mg/ml was pH adjusted with 5% 0.5 M Tris, 0.025 M EDTA, pH 8.5 and reduced with 2.3 mol. eq. TCEP and then conjugated with 6mol. eq. drug linker. After buffer exchange into 30 mM Histidine, 175 mM Sucrose pH 6.0/PBS, the drug to antibody ratio (DAR) was by HIC/LC-MS and % Monomer by size exclusion chromatography (SEC). Percentage monomer values of 95% or greater are assessed as low aggregation.
Aggregation levels were assessed during the conjugation to a test antibody. Conjugation was performed as described above for ADC-1.
During conjugation, we are ideally targeting a monomer content or percentage monomer of 95% or above. Low percentage monomer values usually translate to a higher degree of aggregation. One could therefore agree that percentage monomer values of 95% or higher mean very low levels of aggregation or none, whereas values below this threshold often translate to higher levels of aggregation.

| SMILES | potency relative to SN38 at stabilizing the topo I/DNA complex (topo I/DNA complex) | potency relative to SN38 as a cytotoxin (a variety of cell lines) | Rt [1] [min] | Aggregation (% monomer) ([2]; SEC, 95% or greater = low aggregation) | Aggregation ([2]; grade in words) |
| --- | --- | --- | --- | --- | --- |
| CC[C@@]1(O)C(=O)OCc2c1cc1n(c2=O)Cc2c-1nc1cc(F)c(C)c3c1c2[C@@H](N)CC3 [Exatecan] | about 2.5 fold | about 2.5 fold |  |  |  |
| CC[C@@]1(O)C(=O)OCc2c1cc1n(c2=O)Cc2c-1nc1cc(F)c(C)c3c1c2[C@@H](NC(=O)OCc1ccc(NC(=O)[C@H](C)NC(=O)[C@@H](NC(=O)CNC(=O)CNC(=O)CNC(=O)CNC(=O)CNC(=O)CCN2C(=O)C=CC2=O)C(C)C)cc1)CC3 [Mal-Gly5-VA-PABC-Exatecan] ({Propanoyl(3-maleimido)}-GGGGGVA[PABC]-Exatecan) |  |  | 9.76 | (98%) | None |
